Assay results as given in PMC4607586 (Bioorganic & medicinal chemistry letters, 2015).

How the values were obtained:
HIV-1 protease = HIV-1 protease (Human immunodeficiency virus type 1 group M subtype B, UniProt P04585); experiment: HIV-1 protease enzyme inhibition assay; assay type: biochemical; conditions: for improvement of protease inhibitory activity over 5b: relative to N-methyl-N-propyl amide 5b
HIV-1 LAI = experiment: Antiviral assay using MT-2 cells exposed to HIV-1 LAI; assay type: cell-based

SMILES | enhanced potency over 5a (enzyme inhibition) (HIV-1 protease; relative to 5a) [fold] | antiviral activity (in words) (HIV-1 LAI) | improvement of protease inhibitory activity over 5b (HIV-1 protease)
CCCN(C)C(=O)c1cccc(C(=O)N[C@@H](Cc2ccccc2)[C@H](O)CN(CC(C)C)S(=O)(=O)c2ccc(OC)cc2)c1 [Inhibitor 5b] | 5 |  | 
CCCN(CCC)C(=O)c1cccc(C(=O)N[C@@H](Cc2ccccc2)[C@H](O)CN(CC(C)C)S(=O)(=O)c2ccc(OC)cc2)c1 [Inhibitor 5e] |  | no appreciable antiviral activity | 
COc1ccc(S(=O)(=O)N(CC(C)C)C[C@@H](O)[C@H](Cc2ccccc2)NC(=O)c2cccc(C(=O)N3CCOCC3)c2)cc1 [Inhibitor 5f] |  | very good antiviral activity | over 10 fold
COc1ccc(S(=O)(=O)N(CC(C)C)C[C@@H](O)[C@H](Cc2ccccc2)NC(=O)c2cccc(C(=O)N3CCN(C)CC3)c2)cc1 [Inhibitor 5g] |  | very good antiviral activity | over 10 fold
COC[C@@H]1C[C@@H](O)CN1C(=O)c1cccc(C(=O)N[C@@H](Cc2ccccc2)[C@H](O)CN(CC(C)C)S(=O)(=O)c2ccc(OC)cc2)c1 [Inhibitor 5h] |  | moderate antiviral activity | 
COC[C@H]1C[C@H](O)CN1C(=O)c1cccc(C(=O)N[C@@H](Cc2ccccc2)[C@H](O)CN(CC(C)C)S(=O)(=O)c2ccc(OC)cc2)c1 [Inhibitor 5i] |  | moderate antiviral activity | 
COC[C@H]1C[C@@H](O)CN1C(=O)c1cccc(C(=O)N[C@@H](Cc2ccccc2)[C@H](O)CN(CC(C)C)S(=O)(=O)c2ccc(OC)cc2)c1 [Inhibitor 5k] |  | moderate antiviral activity | 
